Assay [1] addresses T1, recombinant human NK3 receptor (Homo sapiens, UniProt P29371).
T1 sequence (P29371 1-465): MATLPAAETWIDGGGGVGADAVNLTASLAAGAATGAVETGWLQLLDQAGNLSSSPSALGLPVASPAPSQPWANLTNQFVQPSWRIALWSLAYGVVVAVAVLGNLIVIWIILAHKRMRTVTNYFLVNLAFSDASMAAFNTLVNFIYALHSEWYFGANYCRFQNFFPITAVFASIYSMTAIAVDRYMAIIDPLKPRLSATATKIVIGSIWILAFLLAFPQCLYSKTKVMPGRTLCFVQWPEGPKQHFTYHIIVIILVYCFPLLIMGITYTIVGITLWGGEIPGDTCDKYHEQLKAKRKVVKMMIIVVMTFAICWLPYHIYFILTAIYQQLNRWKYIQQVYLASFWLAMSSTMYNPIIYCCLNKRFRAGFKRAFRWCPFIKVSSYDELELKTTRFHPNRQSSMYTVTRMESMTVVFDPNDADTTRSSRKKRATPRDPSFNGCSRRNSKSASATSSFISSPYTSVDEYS
Nature of the assay: Radioligand binding, recombinant human NK3 receptor.

The target in a further assay is Dopamine D2S (Homo sapiens, UniProt P14416). Kind of assay: Cerep selectivity profiling, receptor antagonism. It counts as biochemical. As for the experimental part: (§1) The pharmacological specificity of EUC-001 was assessed using the commercially available selectivity profiling services provided by Cerep (Celle l’Evescault, France). Initially, the activity of EUC-001, at a fixed concentration of 10 μM, was evaluated in a range of assays to assess pharmacological selectivity relative to other cell-surface receptors, ion channels and transport proteins. Where any significant binding was detected, further assays were performed to quantify potential non-selective activity. […] In terms of this non-specific activity, the IC50s are approximately 3.6 log units greater than that required for NK1R antagonism.
Sequence of Dopamine D2S (P14416 1-414 isoform P14416-2): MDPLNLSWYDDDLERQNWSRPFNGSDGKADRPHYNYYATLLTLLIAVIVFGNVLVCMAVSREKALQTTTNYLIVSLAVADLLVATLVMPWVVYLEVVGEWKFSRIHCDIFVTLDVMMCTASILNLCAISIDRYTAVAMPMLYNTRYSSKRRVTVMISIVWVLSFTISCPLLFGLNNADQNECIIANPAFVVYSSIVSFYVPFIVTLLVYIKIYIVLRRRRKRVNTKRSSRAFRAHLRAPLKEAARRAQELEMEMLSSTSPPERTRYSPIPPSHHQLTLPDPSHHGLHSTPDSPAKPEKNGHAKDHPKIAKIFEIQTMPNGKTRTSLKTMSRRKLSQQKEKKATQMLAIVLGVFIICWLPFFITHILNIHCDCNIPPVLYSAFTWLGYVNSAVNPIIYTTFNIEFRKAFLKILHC
(§2) The pharmacological specificity of EUC-001 was assessed using the commercially available selectivity profiling services provided by Cerep (Celle l’Evescault, France). For initial screens, the binding of EUC-001 (synthesized by Hoffmann-La Roche, Basel, Switzerland) at a fixed concentration of 10 μM was evaluated in a range of assays to assess pharmacological selectivity relative to other cell-surface receptors, ion channels and transport proteins.
(§3) For agonist activity, results are expressed as a percentage of the control agonist response induced by the selective NK1R agonist [Sar^9, Met(O2)^11]-substance P (100 nM) for a range of concentrations of EUC-001. Antagonist activity is expressed as a percentage change in the response induced by 3 nM [Sar^9, Met(O2)^11]-SP (R&D systems) across a range of concentrations of EUC-001. The EC50 values (concentration producing a half-maximal specific response) and IC50 values (concentration causing a half-maximal inhibition of the control specific agonist response) were determined by non-linear regression analysis of the concentration–response curves generated with mean replicate values using Hill equation curve fitting (Y = D + [(A − D)/(1 + (C/C50)nH)], where Y = specific response, D = minimum specific response, A = maximum specific response, C = compound concentration, and C50 = EC50 or IC50, and nH = slope factor). This analysis was performed using custom software developed at Cerep and validated by comparison with data generated by the commercial software SigmaPlot® 4.0 for Windows® (SPSS Inc., Chicago, IL, USA). For the antagonists, the apparent dissociation constants (KB) were calculated using the modified Cheng Prusoff equation (KB = IC50/(1 + (A/EC50A)), where A = concentration of reference agonist in the assay, and EC50A = EC50 value of the reference agonist).

Another assay addresses Histamine H2 (Homo sapiens, UniProt P25021). Kind of assay: Cerep selectivity profiling, receptor antagonism. Format: biochemical. As for the experimental part:
as §1, §2, §3

Assay [2] deals with T2, Muscarinic cholinergic M1 (Homo sapiens, UniProt P11229).
T2 sequence (P11229 1-460): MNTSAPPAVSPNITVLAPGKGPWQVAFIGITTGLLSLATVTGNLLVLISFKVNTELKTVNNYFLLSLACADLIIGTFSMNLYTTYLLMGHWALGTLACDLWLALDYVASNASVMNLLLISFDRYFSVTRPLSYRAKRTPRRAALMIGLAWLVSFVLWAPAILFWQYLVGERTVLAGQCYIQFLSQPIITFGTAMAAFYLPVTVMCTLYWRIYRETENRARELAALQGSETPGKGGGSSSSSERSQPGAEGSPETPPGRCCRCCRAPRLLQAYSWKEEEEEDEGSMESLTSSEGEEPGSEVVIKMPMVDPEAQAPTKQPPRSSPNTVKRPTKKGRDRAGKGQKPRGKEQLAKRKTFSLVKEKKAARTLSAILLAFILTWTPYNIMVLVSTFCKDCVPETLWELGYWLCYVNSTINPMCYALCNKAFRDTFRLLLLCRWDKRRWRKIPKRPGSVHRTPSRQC
Kind of assay: Cerep selectivity profiling, receptor antagonism. It counts as biochemical. As for the experimental part:
as §1, §2, §3

The next assay concerns rodent model of TBI. Nature of the assay: BBB permeability after TBI, Evan's blue extravasation. It counts as in vivo, Sprague Dawley rats. The following applies: rat TBI.
The target in the next assay is NK1R (Homo sapiens, UniProt P25103). Kind of assay: In vitro functional assay, free Ca2+ concentration in U373MG cells endogenously expressing NK1R. Further details: which endogenously express the NK1R; endogenous in cells; host or cells: U373MG human glioblastoma astrocytoma cells (ATCC). It counts as cell-based. Here is the method: In vitro functional assays were performed by assessing changes in free Ca^2+ ion concentration in human glioblastoma (U373MG) cells, which endogenously express the NK1R. Agonist activity of EUC-001 is expressed as a percentage of the agonist response induced by the selective NK1R agonist [Sar^9, Met(O2)^11]-substance P (100 nM; Figure 2A), whilst antagonist activity is expressed as a percentage change in the response induced by 3 nM [Sar^9, Met(O2)^11]-SP (Figure 2B).
Sequence of NK1R (P25103 whole entry): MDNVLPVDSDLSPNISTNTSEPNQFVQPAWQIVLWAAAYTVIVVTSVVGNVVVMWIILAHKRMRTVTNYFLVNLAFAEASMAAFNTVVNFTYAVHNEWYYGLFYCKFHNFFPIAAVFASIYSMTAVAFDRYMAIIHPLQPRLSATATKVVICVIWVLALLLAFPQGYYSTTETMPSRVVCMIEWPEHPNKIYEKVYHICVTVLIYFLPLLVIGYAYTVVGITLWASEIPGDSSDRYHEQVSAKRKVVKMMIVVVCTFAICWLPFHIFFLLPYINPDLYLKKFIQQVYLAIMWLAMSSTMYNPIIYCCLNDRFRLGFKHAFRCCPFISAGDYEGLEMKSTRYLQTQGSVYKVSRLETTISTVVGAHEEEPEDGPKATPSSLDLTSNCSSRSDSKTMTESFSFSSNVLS
Human glioblastoma astrocytoma (U373MG) cells (ATCC) were used for in vitro function studies involving intracellular calcium measurements. […] Intracellular calcium concentrations were determined by using the calcium chelating agent fura-2 (Molecular Probes, Waltham, MA, USA). Aliquots of fura-2-loaded cells were subject to agonist stimulation and fluorescence emission was recorded using an MS-5 spectrophotometer (Perkin Elmer, Shelton, CT, USA). Loading of cells, fluorescence monitoring, calibration procedures, and other experimental details were as previously described.
For agonist activity, results are expressed as a percentage of the control agonist response induced by the selective NK1R agonist [Sar^9, Met(O2)^11]-substance P (100 nM) for a range of concentrations of EUC-001. […]

pIC50, pKi: −log10 of the molar value. “Also recorded” adds a separate entry of the source.

Sequence of Histamine H2 (P25021 whole entry): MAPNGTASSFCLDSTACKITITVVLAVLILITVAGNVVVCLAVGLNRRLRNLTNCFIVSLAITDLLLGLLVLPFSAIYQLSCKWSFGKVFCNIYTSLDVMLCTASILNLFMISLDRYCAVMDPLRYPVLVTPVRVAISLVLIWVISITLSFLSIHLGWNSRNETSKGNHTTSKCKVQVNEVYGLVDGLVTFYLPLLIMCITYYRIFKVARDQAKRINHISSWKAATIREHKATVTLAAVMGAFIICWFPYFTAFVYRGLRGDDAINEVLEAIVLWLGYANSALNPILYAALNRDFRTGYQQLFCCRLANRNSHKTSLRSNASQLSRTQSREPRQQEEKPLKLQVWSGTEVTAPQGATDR
Text for rodent model of TBI: Injury was induced in halothane-anesthetized (ProVet) male Sprague Dawley rats (400 ± 20 g) using acceleration-induced impact TBI [29, 93]. This model involves impacting a 10 mm diameter, 3 mm thick stainless steel disc fixed centrally to the exposed skull between the lambda and bregma with an accelerating impactor. The impactor was a 450 g brass weight dropped from a height of 2 m. […] All animals were fed and watered ad libitum before the induction of injury. During both surgery and the immediate recovery phase, rat rectal temperature was maintained using a thermostatically controlled heating pad. Immediately after injury, animals were manually ventilated until stable respiration was restored, usually in <5 min. After injury, all wounds were sutured. Blood pressure was monitored, both before and after injury, using a femoral arterial line.
The optimal dose of the NK1 receptor antagonist was determined from the level of BBB permeability using EB dye extravasation as the BBB marker [94, 95]. Briefly, EUC-001 was administered intravenously 30 min after TBI at doses ranging between 0.03 and 10 mg/kg in six steps (n = 3 per group). […] The supernatants were measured at 610 nm for absorbance of EB using a spectrophotometer (Cole-Parmer, Vernon Hills, IL, USA). Evans blue is expressed as mg/mg of the brain tissue against a standard curve.

What is called pKi is the Ki on a negative log10 scale, so that one unit is a factor of ten. By pIC50 is commonly meant −log10 of the IC50, conventionally taken in molar units. As to `Cc1ccccc1-c1cc(N2CCN(C)CC2)ncc1C(=O)N(C)Cc1cc(C(F)(F)F)cc(C(F)(F)F)c1` [EUC-001, N-(3,5-Bis-trifluoromethyl-benzyl)-N-methyl-6-(4-methyl-piperazine-1-yl)-4-o-tolyl-nicotinamide], the pKi in assay [1] is 4.77. The “IC50 (M)” value on Dopamine D2S is reported as “Not calculable”. For the same molecule, the pIC50 was 4.80 at Histamine H2; 5.48 in assay [2]; 9.16 at NK1R (3 nM [Sar9, Met(O2)11]-SP, read-out: IC50, inhibition of [Sar9, Met(O2)11]-SP-mediated response). In the assay on rodent model of TBI (10 mg/kg 30 min post-injury, tissues 5 h after injury), the “Evan's blue leakage relative to drug vehicle” value was “significant reduction”. The “IC50, decrease in Evan's blue extravasation” value in the assay on rodent model of TBI (bolus iv 30 min after injury, 0.03-10 mg/kg) was determined as 0.43 mg/kg. Moreover, at NK1R, the “Agonist activity, percentage of response to 100 nM [Sar9, Met(O2)11]-substance P” value was “did not exhibit any detectable agonist activity; also recorded: no agonist activity”.

Values taken from PMC10970734, “Identification of an Intravenous Injectable NK1 Receptor Antagonist for Use in Traumatic Brain Injury” (International Journal of Molecular Sciences, 2024).
